Several values for one entry are separate records, joined by “and”; a condition that tells them apart may be missing. Equal values may be shown once. Read-outs that look alike come from different tables or passages of the source.
Tests used:
[1] = molecular target: EGFR-L858R/T790M (Homo sapiens, UniProt P00533, L858R/T790M); assay: HTRF KinEASE-TK activity-based assay, EGFR-L858R/T790M; conditions: EGFR HTRF IC50 L858R/T790M, ATP at Km (4 µM), 30 min preincubation; mean ± SD of three independent measurements in duplicates
Sequence of EGFR-L858R/T790M (P00533 25-1210 T790M/L858R): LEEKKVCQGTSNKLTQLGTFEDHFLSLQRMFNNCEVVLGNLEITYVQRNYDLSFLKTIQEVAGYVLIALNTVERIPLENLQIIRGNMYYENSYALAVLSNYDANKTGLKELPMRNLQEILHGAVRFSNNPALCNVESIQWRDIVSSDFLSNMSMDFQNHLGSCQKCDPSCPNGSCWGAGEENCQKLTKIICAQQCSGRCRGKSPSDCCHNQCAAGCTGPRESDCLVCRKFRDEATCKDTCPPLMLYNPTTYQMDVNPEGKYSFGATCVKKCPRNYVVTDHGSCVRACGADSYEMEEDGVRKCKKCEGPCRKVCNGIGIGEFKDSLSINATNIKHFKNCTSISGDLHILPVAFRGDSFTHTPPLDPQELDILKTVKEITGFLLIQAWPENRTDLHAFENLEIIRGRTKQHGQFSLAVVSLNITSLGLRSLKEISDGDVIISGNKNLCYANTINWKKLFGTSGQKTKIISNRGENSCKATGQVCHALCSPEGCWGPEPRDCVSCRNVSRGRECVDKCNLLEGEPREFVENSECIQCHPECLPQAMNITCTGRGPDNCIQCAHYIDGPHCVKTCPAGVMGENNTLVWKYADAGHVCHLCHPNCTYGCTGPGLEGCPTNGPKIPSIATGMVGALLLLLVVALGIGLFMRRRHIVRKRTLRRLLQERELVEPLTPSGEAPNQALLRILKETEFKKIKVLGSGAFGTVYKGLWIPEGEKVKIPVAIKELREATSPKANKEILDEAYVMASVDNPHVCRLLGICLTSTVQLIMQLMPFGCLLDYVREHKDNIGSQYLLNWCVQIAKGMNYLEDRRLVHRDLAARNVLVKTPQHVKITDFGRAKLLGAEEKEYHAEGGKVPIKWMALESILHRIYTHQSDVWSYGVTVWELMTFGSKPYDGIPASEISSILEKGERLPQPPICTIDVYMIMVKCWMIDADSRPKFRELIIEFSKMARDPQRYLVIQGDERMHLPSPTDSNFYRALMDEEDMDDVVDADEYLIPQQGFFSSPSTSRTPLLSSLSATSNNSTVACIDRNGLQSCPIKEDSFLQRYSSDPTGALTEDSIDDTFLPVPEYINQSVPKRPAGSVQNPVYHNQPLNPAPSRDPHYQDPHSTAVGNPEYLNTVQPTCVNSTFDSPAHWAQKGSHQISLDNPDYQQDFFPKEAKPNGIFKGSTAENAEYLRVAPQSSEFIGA

[2] = system: H1975 cells (EGFR-L858R/T790M); assay: CellTiter-Glo viability assay, H1975
[3] = molecular target: EGFR-wt (Homo sapiens, UniProt P00533); assay: HTRF KinEASE-TK activity-based assay, EGFR-wt; conditions: EGFR HTRF IC50 wt, ATP at Km (9.5 µM), 30 min preincubation; mean ± SD of three independent measurements in duplicates
Sequence of EGFR-wt (P00533 25-1210): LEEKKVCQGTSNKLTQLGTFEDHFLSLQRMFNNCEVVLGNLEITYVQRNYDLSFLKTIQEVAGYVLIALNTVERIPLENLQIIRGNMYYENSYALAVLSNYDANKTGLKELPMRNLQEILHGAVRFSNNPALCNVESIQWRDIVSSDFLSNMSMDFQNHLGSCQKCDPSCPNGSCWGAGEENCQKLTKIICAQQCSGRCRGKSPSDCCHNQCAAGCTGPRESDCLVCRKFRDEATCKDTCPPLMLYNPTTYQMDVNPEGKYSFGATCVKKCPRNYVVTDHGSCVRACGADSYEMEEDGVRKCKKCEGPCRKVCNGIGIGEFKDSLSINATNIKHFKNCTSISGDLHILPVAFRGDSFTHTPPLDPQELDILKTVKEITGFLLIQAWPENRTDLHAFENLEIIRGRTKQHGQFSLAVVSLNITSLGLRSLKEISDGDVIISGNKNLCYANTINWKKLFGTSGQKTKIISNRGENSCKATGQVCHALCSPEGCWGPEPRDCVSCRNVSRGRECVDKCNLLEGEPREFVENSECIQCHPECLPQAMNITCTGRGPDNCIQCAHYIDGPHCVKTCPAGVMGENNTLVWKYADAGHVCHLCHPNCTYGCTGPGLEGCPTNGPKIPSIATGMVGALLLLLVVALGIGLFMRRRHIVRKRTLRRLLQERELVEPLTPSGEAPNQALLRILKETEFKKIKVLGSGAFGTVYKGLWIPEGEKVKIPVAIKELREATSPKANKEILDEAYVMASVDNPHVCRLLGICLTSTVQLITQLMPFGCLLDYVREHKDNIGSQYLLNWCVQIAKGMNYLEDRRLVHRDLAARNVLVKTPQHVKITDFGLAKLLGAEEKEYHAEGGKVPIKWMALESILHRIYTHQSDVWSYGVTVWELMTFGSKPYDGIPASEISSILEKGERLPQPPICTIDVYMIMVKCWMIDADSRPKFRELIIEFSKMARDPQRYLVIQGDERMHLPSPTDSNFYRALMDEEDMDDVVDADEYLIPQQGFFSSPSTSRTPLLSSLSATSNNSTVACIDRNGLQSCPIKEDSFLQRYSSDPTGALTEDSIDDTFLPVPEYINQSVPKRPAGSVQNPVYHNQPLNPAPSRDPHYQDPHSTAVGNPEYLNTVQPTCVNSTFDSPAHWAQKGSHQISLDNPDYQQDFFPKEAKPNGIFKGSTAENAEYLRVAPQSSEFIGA

[4] = system: HCC827 cells (EGFR-delE746_A750); assay: CellTiter-Glo viability assay, HCC827; assay type: cell-based; conditions: Homo sapiens, read-out: EGFR CTG EC50 HCC827;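 note: luminescence from ATP content as a measure of metabolically active cells, in RPMI with 10% FBS, compound added as serial dilutions after 24 h of preculture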
[5] = system: A431 cells (EGFR wild type); assay: CellTiter-Glo viability assay, A431; conditions: Homo sapiens, A-431, 96 h
[6] = Microsomal stability (phase I), mouse; assay type: in vitro ADME; conditions: mouse liver microsomes, up to 60 minutes, 37 °C
Experimental: (§1) Microsomal stability (phase I) assay.
(§2) Metabolic stability under oxidative conditions was measured in liver microsomes from different
(§3) time up to 50 minutes (HLM) or 60 minutes (MLM) at 37 °C. Based on the compound half-life t1/2,
(§4) the in vitro intrinsic clearance CLint was calculated. […]

[7] = system: A549 cells (KRAS mutant); assay: CellTiter-Glo viability assay, A549; conditions: Homo sapiens, A549, 96 h, read-out: KRAS CTG EC50 A549
[8] = molecular target: EGFR-L858R (Homo sapiens, UniProt P00533, L858R); assay: HTRF KinEASE-TK activity-based assay, EGFR-L858R
Sequence of EGFR-L858R (P00533 25-1210 L858R): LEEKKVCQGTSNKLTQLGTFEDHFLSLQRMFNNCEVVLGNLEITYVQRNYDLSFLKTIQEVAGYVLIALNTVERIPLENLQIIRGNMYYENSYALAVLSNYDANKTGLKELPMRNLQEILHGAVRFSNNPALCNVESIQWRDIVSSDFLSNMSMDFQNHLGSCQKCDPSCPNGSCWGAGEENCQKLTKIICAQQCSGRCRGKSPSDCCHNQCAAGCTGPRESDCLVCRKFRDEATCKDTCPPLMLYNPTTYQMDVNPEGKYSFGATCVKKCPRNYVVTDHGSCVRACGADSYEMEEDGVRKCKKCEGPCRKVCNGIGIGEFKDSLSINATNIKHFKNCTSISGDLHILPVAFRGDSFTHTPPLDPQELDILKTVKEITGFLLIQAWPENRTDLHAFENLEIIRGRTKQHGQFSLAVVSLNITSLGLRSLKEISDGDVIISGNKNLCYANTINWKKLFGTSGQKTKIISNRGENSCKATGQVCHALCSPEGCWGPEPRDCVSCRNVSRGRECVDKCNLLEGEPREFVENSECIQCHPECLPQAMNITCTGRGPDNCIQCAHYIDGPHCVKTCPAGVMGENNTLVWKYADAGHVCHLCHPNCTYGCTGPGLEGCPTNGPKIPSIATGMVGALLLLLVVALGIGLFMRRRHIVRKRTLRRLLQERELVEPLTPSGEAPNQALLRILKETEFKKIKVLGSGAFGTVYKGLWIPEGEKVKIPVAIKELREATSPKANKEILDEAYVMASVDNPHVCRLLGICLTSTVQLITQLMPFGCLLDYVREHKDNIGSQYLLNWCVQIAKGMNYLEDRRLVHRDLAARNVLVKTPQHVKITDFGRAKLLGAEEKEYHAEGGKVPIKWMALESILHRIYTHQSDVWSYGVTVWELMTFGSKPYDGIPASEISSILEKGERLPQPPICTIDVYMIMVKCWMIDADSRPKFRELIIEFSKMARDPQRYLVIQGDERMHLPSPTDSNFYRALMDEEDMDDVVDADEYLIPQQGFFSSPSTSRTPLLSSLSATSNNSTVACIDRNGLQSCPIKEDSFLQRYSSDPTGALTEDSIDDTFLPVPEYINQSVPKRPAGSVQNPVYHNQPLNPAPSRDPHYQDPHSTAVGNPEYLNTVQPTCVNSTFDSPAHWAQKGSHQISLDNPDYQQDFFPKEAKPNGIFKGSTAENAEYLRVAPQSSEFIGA

[9] = system: H358 cells (KRAS mutant); assay: CellTiter-Glo viability assay, H358; assay type: cell-based; conditions: Homo sapiens, read-out: KRAS CTG EC50 H358;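 note: viable cell number estimated from ATP-dependent luminescence following exposure to serially diluted inhibitor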
[10] = Plasma stability, mouse; assay type: in vitro ADME; conditions: 5 µM, 1 h, 37 °C
[11] = Microsomal stability (phase I), human; assay type: in vitro ADME; conditions: human liver microsomes, up to 50 minutes, 37 °C
Experimental: as §1, §2, §3, §4

[12] = PAMPA (parallel artificial membrane permeability assay); assay type: in vitro ADME; conditions: pH 7.4, 500 µM, 16 hours
Experimental: masses and 0.02 Da for fragment ions. FDR was adjusted to 1% on peptide spectrum match […]
as §1
Metabolic stability under oxidative conditions was measured in liver microsomes from different species by LC/MS-based measuring of depletion of compound at a concentration of 3 µM over time up to 50 minutes (HLM) or 60 minutes (MLM) at 37 °C. Based on the compound half-life t1/2, the in vitro intrinsic clearance CLint was calculated.
Plasma stability was measured by LC/MS-based determination of the percentage of remaining compounds at a concentration of 5 µM after incubation in plasma obtained from different species […]
Assessment of plasma protein binding was measured by equilibrium dialysis by incubating plasma with the compound of interest at a concentration of 5 µM for 6 h at 37 °C followed by LC/MS-based determination of final compound concentrations.
PAMPA (Parallel artificial membrane permeability assay). […]
temperature in a wet chamber, the optical density of the solution in the receiver well was measured between 250 and 500 nm in intervals of 10 nm. The percent flux was calculated from […]

[13] = Caco-2 assay; assay type: in vitro ADME; conditions: human, Caco-2, 5 μM, pH 7.4, 2 hours; for Papp A→B at 2 h, 5 μM: apical to basolateral, read-out: Caco-2: Papp AB; for Papp B→A at 2 h, 5 μM: basolateral to apical, read-out: Caco-2: Papp BA
Experimental: For Caco-2 cell assay, a 10 mM DMSO stock of the compound was diluted to a final concentration of 5 μM in HBSS buffer pH 7.4 and incubated for 2 hours at 37 °C and 5% CO2 on a monolayer of Caco-2 cells (ATCC) that had been grown on a transwell membrane (Millipore, Schwalbach, Germany) for 21 days. The compound concentration was measured in the receiver as well as the donor well. Apparent permeability (Papp) from either the apical to basolateral direction or vice versa […]
is the donor drug concentration at t = 0, and dQ/dt is the amount of drug transported within the given time period of 2 hours. […]

[14] = Plasma protein binding, human; assay type: in vitro ADME; conditions: equilibrium dialysis, 37 °C
Experimental: (§5) Assessment of plasma protein binding was measured by equilibrium dialysis by incubating plasma
(§6) based determination of final compound concentrations. […]

[15] = Plasma protein binding, mouse; assay type: in vitro ADME; conditions: equilibrium dialysis, 37 °C
Experimental: as §5, §6

[16] = Plasma stability, human; assay type: in vitro ADME; conditions: 5 µM, 1 h, 37 °C
[17] = Homo sapiens, NCI-H1975, 96 h, read-out: EGFR CTG EC50 H1975, H1975, 96 hours, CellTiter-Glo
[18] = HCC827, 96 hours, CellTiter-Glo
[19] = read-out: EGFR CTG EC50 A431, A431, 96 hours, CellTiter-Glo
[20] = NCI-H358, H358, 96 hours, CellTiter-Glo
[21] = read-out: EGFR CTG EC50 H1975, H1975, 96 hours, CellTiter-Glo

| IC50 [1] | EC50 [2, 17] | IC50 [3] | EC50 [4, 18] | EC50 [5, 19] | microsomal CLint at 3 µM [6] | EC50 [7] | IC50 [8] | EC50 [9, 20] | Structure (SMILES) | further results |
| --- | --- | --- | --- | --- | --- | --- | --- | --- | --- | --- |
| 26 ± 8 nM | 980 ± 136 nM | 60 ± 18 nM | 282 ± 29 nM | 2430 ± 991 nM | 26 µL/min/mg | 7060 ± 3230 nM | 34 ± 11 nM | 10700 ± 3520 nM | COc1ncnc2[nH]c(-c3ccc(C)cc3)c(-c3cccc(NC(=O)C=CCN(C)C)c3)c12 [Compound 10b] |  |
| 0.4 ± 0.1 nM | 77 ± 15 nM | 0.4 ± 0.1 nM | < 14 nM | 1120 ± 656 nM | 30 µL/min/mg | 6050 ± 4600 nM | 0.2 ± 0.1 nM | 6270 ± 1270 nM | C=CC(=O)Nc1cccc(-c2c(-c3ccc(N4CCN(C)CC4)cc3)[nH]c3ncn(C4CCCCC4)c(=O)c23)c1 [Compound 29j] |  |
| < 200 nM and 175 nM | 2040 ± 88 nM | 200 ± 148 nM | 151 ± 10 nM | 9860 ± 4250 nM | 118 µL/min/mg | 10200 ± 504 nM | 93 ± 54 nM | 14200 ± 678 nM | C=CC(=O)Nc1cccc(-c2c(-c3ccc(C)cc3)[nH]c3ncnc(OC)c23)c1 [Compound 10a] | EC50 ([2]; Homo sapiens, NCI-H1975, read-out: EC50 / potency in H1975 cells, H1975, rounded value in running text): ~2000 nM |
| < 0.1 nM | 64 ± 8 nM | < 0.1 nM | < 14 nM | 1530 ± 273 nM | 50 µL/min/mg | 1130 ± 176 nM | < 0.1 nM | 1640 ± 813 nM | C=CC(=O)Nc1cccc(-c2c(-c3ccc(N4CCN(C)CC4)cc3)[nH]c3ncnc(OCCCC)c23)c1 [Compound 19d] |  |
| 0.1 ± 0.1 nM | ~300 nM | 0.2 ± 0.2 nM | < 14 nM | 1320 ± 777 nM | 8 µL/min/mg | 5850 nM | < 0.1 nM | 4470 nM | C=CC(=O)Nc1cc(-c2c(-c3ccc(N4CCN(C)CC4)cc3)[nH]c3ncnc(OC)c23)ccc1OC(C)COC (stereo not drawn) [Compound 20b] | EC50 [2, 21]: 375 ± 252 nM |
| > 1 nM and 1.2 nM | 263 ± 46 nM | 0.1 nM | < 14 nM | 502 ± 166 nM | 84 µL/min/mg | 2130 ± 990 nM | < 0.1 nM | 1940 ± 45 nM | C=CC(=O)Nc1cccc(-c2c(-c3ccc(N4CCN(C)CC4)cc3)[nH]c3ncn(C4CCCC4)c(=O)c23)c1 [Compound 29i] |  |
|  | 97 ± 37 nM |  | 20 ± 6 nM | 2140 ± 439 nM | 66 µL/min/mg | 4000 ± 545 nM |  | 4390 ± 512 nM | C=CC(=O)Nc1cccc(Oc2nc(Nc3ccc(N4CCN(C)CC4)cc3OC)ncc2Cl)c1 [WZ4002, reference compound] | Plasma stability [10]: 78 %remain; microsomal CLint at 3 µM [11]: 11 µL/min/mg; Papp A→B at 2 h, 5 μM [13]: 4.9 ×10⁻⁶ cm/s; Papp B→A at 2 h, 5 μM [13]: 11.7 ×10⁻⁶ cm/s; fraction unbound at 6 h, 5 µM [14]: 0.008; fraction unbound at 6 h, 5 µM [15]: 0.019; Plasma stability [16]: 86 %remain |
| 0.5 nM | < 200 nM | 0.4 ± 0.2 nM | 15 ± 1 nM | 739 ± 287 nM | 4 µL/min/mg | 4300 ± 1250 nM | 0.2 ± 0.1 nM | 3470 ± 2010 nM | C=CC(=O)Nc1cccc(-c2c(-c3ccc(N4CCN(C)CC4)cc3)[nH]c3ncn(CC)c(=O)c23)c1 [Compound 29b] | EC50 [2, 21]: 144 ± 41 nM |
| 0.1 nM | 38 ± 19 nM | 0.1 nM | < 14 nM | 334 ± 50 nM | 46 µL/min/mg | 1800 ± 131 nM | < 0.1 nM | 2700 ± 758 nM | C=CC(=O)Nc1cccc(-c2c(-c3ccc(N4CCN(C)CC4)cc3)[nH]c3ncnc(OC(C)C)c23)c1 [Compound 19g] |  |

| Structure (SMILES) | IC50 [1] | EC50 [2, 17] | IC50 [3] | EC50 [4, 18] | EC50 [5, 19] | microsomal CLint at 3 µM [6] | EC50 [7] | IC50 [8] | EC50 [9, 20] | further results |
| --- | --- | --- | --- | --- | --- | --- | --- | --- | --- | --- |
| C=CC(=O)Nc1cc(Nc2nccc(-c3cn(C)c4ccccc34)n2)c(OC)cc1N(C)CCN(C)C [Osimertinib, osimertinib, reference compound] |  |  |  |  |  | 60 µL/min/mg | 1830 ± 259 nM |  |  | EC50 ([2]; Homo sapiens, NCI-H1975, 96 h, read-out: EGFR CTG EC50 H1975): 16 ± 5 nM; Plasma stability [10]: 75 %remain; microsomal CLint at 3 µM [11]: 4.1 µL/min/mg; EC50 ([4]; HCC827, 96 h): < 14 nM; PAMPA flux [12]: 88%; Papp A→B at 2 h, 5 μM [13]: 5 ×10⁻⁶ cm/s; Papp B→A at 2 h, 5 μM [13]: 6.8 ×10⁻⁶ cm/s; EC50 ([5]; read-out: EGFR CTG EC50 A431): […]; fraction unbound at 6 h, 5 µM [14]: 0.029; EC50 ([9]; NCI-H358, 96 h): 2840 ± 362 nM; fraction unbound at 6 h, 5 µM [15]: 0.024; Plasma stability [16]: 78 %remain |
